According to patent publication US10450549B2, “Aryloxyphenoxypropionate tolerance in turfrgass species and use of AAD1 as a selectable marker” (Dow AgroSciences, LLC, priority 2004, dated 2019):
Read-outs that look alike come from different tables or passages of the source.

Tests used:
[1] = test system: F1 corn containing AAD1 (v3), PAT, and glyphosate resistance genes; assay: Greenhouse injury of F1 corn stacked with AAD1 (v3), PAT and glyphosate resistance (2,4-D DMA, glyphosate, glufosinate and combinations); assay type: in vivo; details: RR/PAT/AAD1
Source text: Homozygous T2 AAD1 (v3)/PAT corn plants were crossed with glyphosate resistant corn plants producing F1 seed containing AAD1 (v3), PAT, and glyphosate resistance genes as described in the previous example.
(§1) F1 seeds were planted individually into 3-inch pots prepared with Metro-Mix® 360 growing medium (Sun Gro Horticulture). […] For the remainder of the study the plants were subirrigated with deionized water.
(§2) The plants were sprayed with rates of 2,4-D DMA, glyphosate, glufosinate, and various combinations of the three. All applications were formulated in 200 mM Hepes buffer (pH 7.5). In spray applications where glufosinate was present the treatment was formulated with the addition of 2% w/v ammonium sulfate.
(§3) At 3 and 14 days after treatment (DAT) plants were evaluated. Plants were assigned injury rating with respect to stunting, chlorosis, and necrosis. Plants assigned an injury rating of 90% or above are considered dead.

Hi II X 5XH751 = assay: Greenhouse injury of non-transformed Hi II X 5XH751 corn (2,4-D DMA, glyphosate, glufosinate and combinations); assay type: in vivo
Method: as §1, §2, §3

AAD1 (v1) = target: T1, AAD1 (v1) (Sphingobium herbicidovorans, UniProt Q8KSC8); assay: Colorimetric phenol detection assay of AAD1 (v1) activity (purified enzyme or E. coli extract); assay type: biochemical; details: for A510, AAD1 / A510, AAD1 (10x): Table 4, substrate 1 mM; for A510, AAD1: 1 μg purified AAD1 (v1) per 0.16 ml assay; for A510, AAD1 (10x): 10 μg purified AAD1 (v1) per 0.16 ml assay; for activity of AAD1 (v1) E. coli extract on substrate: 0.5 mM substrate, 4 μl extract, 15 min
T1 construct: made in house; host or cells: E. coli BL-21 Star (DE3), plasmid pDAB3203

[2] = test system: Hi-II corn grown from seed; assay: Lethal dose of AOPP herbicides on non-transformed Hi-II corn
[3] = test system: AAD1 (v3)-transformed T0 corn events; assay: Tolerance of T0 AAD1 (v3) corn plants (pDAB3404) to postemergence AOPP herbicides; assay type: in vivo
[4] = test system: T4 Arabidopsis homozygous for AAD1 (v3) (line AAD1.01.315.076); assay: Foliar-applied auxinic herbicides on homozygous T4 AAD1 (v3) Arabidopsis, % injury 14 DAT; assay type: in vivo, Arabidopsis thaliana; details: AAD1.01.315.076.T4 homozygous AAD1 plants
Outline: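 Homozygous T4 AAD1 (v3) Arabidopsis (line AAD1.01.315.076) and a PAT/Cry1F transformed control were grown in pots and track-sprayed foliarly at 187 L/ha with herbicides formulated in 200 mM Hepes pH 7.5. Injury was rated 14 days after treatment, with 3-4 replicates averaged over two experiments.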

wildtype KY 160 tobacco = assay: Wildtype tobacco response to phenoxy auxin herbicides; assay type: in vivo, Nicotiana tabacum; details: KY160-Wildtype
Method: Each treatment was replicated 1-3 times. Injury ratings were recorded 3 and 14 DAT. […] In several events, some initial auxinic herbicide-related epinasty occurred at doses of 800 g ae/ha or less. […] All events suffered some level temporary auxinic damage 3 DAT when treated with 3200 g ae/ha. Some leaf burning also occurred at this high rate due to the acidity of the spray solution. Future trials at high 2,4-D rates were buffered. […] Some events were inconsistent in response among replicates and were deemed “variable” (Table 27).
(§4) Two AAD1 (v3) tobacco lines (event 721(2)-013.010 and 721(3)-008.005) were chosen from the T0 generation. The T1 seed was stratified, and sown into selection trays much like that of Arabidopsis (Example 6.4), followed by selective removal of untransformed nulls in this segregating population with 280 g ai/ha glufosinate (PAT selection). Survivors were transferred to individual 3-inch pots in the greenhouse. […] Improved consistency of response is anticipated in T1 plants not having come directly from tissue culture. These plants were compared against wildtype KY 160 tobacco. All plants were sprayed with the use of a track sprayer set at 187 L/ha. […] All applications were formulated in 200 mM Hepes buffer (pH 7.5). Each treatment was replicated 4 times. Plants were evaluated at 3 and 14 days after treatment. Plants were assigned injury rating with respect to stunting, chlorosis, and necrosis. The T1 generation is segregating, so some variable response is expected due to difference in zygosity. (Table 28).

[5] = test system: AAD1 (v3) T1 tobacco (events 721(2)-013.010 and 721(3)-008.005); assay: Segregating AAD1 T1 tobacco response to phenoxy auxin herbicides; assay type: in vivo, Nicotiana tabacum
Source text: as §4

[6] = test system: transformed-control line containing PAT and Cry1F; assay: Foliar-applied auxinic herbicides on control (PAT/Cry1F, wildtype) Arabidopsis, % injury 14 DAT; assay type: in vivo, Arabidopsis thaliana; details: PatCry1f - Control
Method: The ability of AAD1 (v3) to provide resistance to other aryloxyphenoxyalkanoate auxin herbicides in transgenic Arabidopsis was determined by foliar application of various substrates described in Example 6.8. T4 generation Arabidopsis seed, homozygous for AAD1 (v3) (line AAD1.01.315.076) was stratified, and sown into selection trays much like that of Arabidopsis (Example 6.4). A transformed-control line containing PAT and the insect resistance gene Cry1F was planted in a similar manner. Seedlings were transferred to individual 3-inch pots in the greenhouse. All plants were sprayed with the use of a track sprayer set at 187 L/ha. […] All applications were formulated in 200 mM Hepes buffer (pH 7.5). Each treatment was replicated 3-4 times. Plants were evaluated at 3 and 14 days after treatment and are averaged over two experiments.

[7] = test system: Agrostis palustris var. Pencross; assay: Bentgrass plate test bioassay for herbicide degradation; assay type: in vivo; details: for GR50 ratio: enzyme-expressing lysate vs blank vector, ≥ 2 = threshold
Method: Because of the selective nature of the herbicides being tested (i.e., monocot plants controlled by AOPP herbicides and dicot plants controlled by auxinic herbicides), wildtype Agrostis palustris var. Pencross and Arabidopsis thaliana var. Columbia were used as monocot and dicot test species, respectively. Each species is amenable to germination and growth in small Petri dishes.
Twenty to thirty sterilized seeds for each test species used were added onto a sterile, solidified agar Plate Test Medium (PTM) [2.5 mM KNO3, 2.5 mM KH2PO4, […], 10 mM NaEDTA (pH 8.0), 2 mM MgSO4, 2 mM Ca(NO3) 2, 70 μM H3BO3, 14 μM MnCl2, 0.5 μM CuSO4, 1 μM ZnSO4, 0.2 μM NaMoO4.2H2O, 10 μM NaCl, 10 nM CoCl2.H2O, 0.8% (w/v) sucrose, 0.4% agarose (w/v)] for bioassay in 60×15-mm Petri dishes (Falcon 1007). PTM was additionally modified by adding up to six rates of test herbicide standards or herbicide-enzyme test solution dilutions such that the four-fold concentration increments covered a rate range of three orders of magnitude with the GR50 rate (50% growth reduction) approximately in the center of the range.
For herbicide-enzyme test solutions, the maximal concentration was determined based on the nominal concentration before any subsequent enzymatic degradation would occur. Seeds were evenly spread by adding 3 ml of melted PTM of the same composition, swirling, and allowing to solidify. Plates were sealed and maintained under sterile conditions in a low light growth chamber (24 h day^−1, 100 μE/m^2s^1, 23° C.) for 7 days. Root length or root+shoot length were measured for five randomly chosen Arabidopsis and bentgrass plants, respectively, average mean length (percent of untreated control) vs. nominal herbicide concentration and GR50 determined.

[8] = purified AAD1 (v1), 1 mM substrate
[9] = Agrostis stolonifera, AAD1 (v1)-expressing lysate, nominal concentration, read-out: GR50, Chemical + AAD1 v1
[10] = Escherichia coli, in Agrostis stolonifera, cell lysate of E. coli pET vector without gene insert, read-out: GR50, Chemical + Blank Vector

T1 sequence (Q8KSC8 whole entry): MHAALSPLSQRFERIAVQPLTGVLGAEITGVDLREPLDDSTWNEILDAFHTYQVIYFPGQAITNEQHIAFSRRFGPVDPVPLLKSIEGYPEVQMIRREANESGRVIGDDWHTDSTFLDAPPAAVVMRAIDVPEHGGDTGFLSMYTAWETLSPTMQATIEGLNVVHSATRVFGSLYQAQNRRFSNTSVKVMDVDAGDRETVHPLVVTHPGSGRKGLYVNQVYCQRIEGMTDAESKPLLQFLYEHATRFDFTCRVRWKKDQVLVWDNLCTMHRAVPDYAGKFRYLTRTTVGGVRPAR

Compound: CP(=O)(O)CCC(N)C(=O)O (stereo not shown) [glufosinate]
- % Injury at 14 DAT Ave ([1]; 470 g ae/ha (1X)): 0%
- % Injury at 14 DAT Ave ([1]; 940 g ae/ha (2X)): 3%
- % Injury at 14 DAT Ave ([1]; 1880 g ae/ha (4X)): 15%
- % Injury at 14 DAT Ave (Hi II X 5XH751; 470 g ae/ha (1X)): 80%
- % Injury at 14 DAT Ave (Hi II X 5XH751; 940 g ae/ha (2X)): 90%
- % Injury at 14 DAT Ave (Hi II X 5XH751; 1880 g ae/ha (4X)): 96%

Compound: C[C@@H](Oc1ccc(Oc2ccc(C#N)cc2F)cc1)C(=O)O [cyhalofop]
- A510, AAD1 (AAD1 (v1)): 0.114
- A510, AAD1 (10x) (AAD1 (v1)): 1.26
- activity relative to the dichlorprop rate (AAD1 (v1); [8]): 21%
- activity relative to the quizalofop rate (AAD1 (v1); [8]): 27%
- lethal dose ([2]; Clincher + 1% COC (v/v)): 62.5 g ae/ha)
- rate that effectively kills (>95% injury) three to four leaf Hi-II corn ([2]; postemergence, commercial formulations): 62.5 g ae/ha
- % Injury 14 DAT ([3]; 62.5 g ae/ha, construct 3404 event 001 clone 018): 0%
- % Injury 14 DAT ([3]; 62.5 g ae/ha, construct 3404 event 022 clone 024): 0%
- % Injury 14 DAT ([3]; 62.5 g ae/ha, construct 3404 event 038 clone 018): 0%
- % Injury 14 DAT ([3]; 125 g ae/ha, construct 3404 event 022 clone 018): 0%

Compound: C[C@@H](Oc1ccc(Cl)cc1Cl)C(=O)O [R-dichlorprop]
- Ave % Injury 14DAT ([4]; 50 g ae/ha foliar): 3%
- Ave % Injury 14DAT ([4]; 200 g ae/ha foliar): 3%
- Ave % Injury 14DAT ([4]; 800 g ae/ha foliar): 3%
- Ave % Injury 14DAT ([4]; 3200 g ae/ha foliar): 3%
- kcat (AAD1 (v1); purified AAD1 (v1)): 0.435 s⁻¹
- Km (AAD1 (v1); purified AAD1 (v1), 25 mM MOPS pH 6.8, 25° C., read-out: Km ± SE): 75 ± 10 µM
- Vmax ± SE (AAD1 (v1); purified AAD1 (v1), Michaelis-Menten fit): 0.79 ± 0.03 μmol min^−1 mg^−1 AAD1
- Average % Injury of Replicates 14 DAT (wildtype KY 160 tobacco; 560 g ae/ha): 70%
- Average % Injury of Replicates 14 DAT (wildtype KY 160 tobacco; 1120 g ae/ha): 75%
- Average % Injury of Replicates 14 DAT (wildtype KY 160 tobacco; 2240 g ae/ha): 88%
- Average % Injury of Replicates 14 DAT (wildtype KY 160 tobacco; 4480 g ae/ha): 95%
- Average % Injury of Replicates 14 DAT ([5]; 560 g ae/ha, 721(2)013.010 (medium tolerance in T0 generation)): 5%
- Average % Injury of Replicates 14 DAT ([5]; 560 g ae/ha, 721(3)008.005 (high tolerance in T0 generation)): 0%
- Average % Injury of Replicates 14 DAT ([5]; 1120 g ae/ha, 721(2)013.010 (medium tolerance in T0 generation)): 5%
- Average % Injury of Replicates 14 DAT ([5]; 1120 g ae/ha, 721(3)008.005 (high tolerance in T0 generation)): 0%
- Average % Injury of Replicates 14 DAT ([5]; 2240 g ae/ha, 721(2)013.010 (medium tolerance in T0 generation)): 5%
- Average % Injury of Replicates 14 DAT ([5]; 2240 g ae/ha, 721(3)008.005 (high tolerance in T0 generation)): 0%
- Average % Injury of Replicates 14 DAT ([5]; 4480 g ae/ha, 721(2)013.010 (medium tolerance in T0 generation)): 10%
- Average % Injury of Replicates 14 DAT ([5]; 4480 g ae/ha, 721(3)008.005 (high tolerance in T0 generation)): 5%
- injury of T1 AAD1 (v3) tobacco ([5]; rates below 1× field rates (560 g ae/ha), either event): No injury was observed
- Ave % Injury 14DAT ([6]; 50 g ae/ha foliar): 31%
- Ave % Injury 14DAT ([6]; 200 g ae/ha foliar): 73%
- Ave % Injury 14DAT ([6]; 800 g ae/ha foliar): 89%
- Ave % Injury 14DAT ([6]; 3200 g ae/ha foliar): 95%

Compound: CC(Oc1ccc(Oc2ncc(C(F)(F)F)cc2Cl)cc1)C(=O)O (stereo not shown) [Haloxyfop-RS]
- activity of AAD1 (v1) E. coli extract on substrate (AAD1 (v1)): cleaved
- IC50 ([7]; Agrostis stolonifera, 168 h, root+shoot length, 7 days, read-out: GR50, Chemical alone): 28 nM
- IC50 [7, 9]: 520 nM
- IC50 [7, 10]: 21 nM
- GR50 ratio [7]: 25

Compound: CC(Oc1ccc(Oc2ccc(Cl)cc2Cl)cc1)C(=O)O (racemic) [(R,S)- diclofop]
- activity of AAD1 (v1) E. coli extract on substrate (AAD1 (v1)): cleaved
- A510, AAD1 (AAD1 (v1)): 0.155
- A510, AAD1 (10x) (AAD1 (v1)): 1.663
- herbicidal activity after AAD1 (v1) treatment, bentgrass plate bioassay ([7]; AAD1 (v1) extract): loss of herbicidal activity
- IC50 [7, 9]: 130 nM
- IC50 [7, 10]: 20 nM
- GR50 ratio [7]: 7
